According to patent publication US10987357B2, “Aerosolized fluoroquinolones and uses thereof” (Horizon Orphan, LLC, priority 2005, dated 2021):
Converted amounts (≈) assume the structure as drawn. Read-outs that look alike come from different tables or passages of the source.

What was measured:
[1] = in vivo; cited from earlier work
physchem [2] = assay: physchem
From the text: The buffers used were HCL (pH 1,2), acetate (pH 4,5), phosphate (pH 6,7,8) and borate (9,10).

PAM1582 [3] = assay: Levofloxacin MIC of hollow fiber test strain; assay type: cell-based; settings: Pseudomonas aeruginosa, read-out: Levofloxacin MIC
From the text: Pseudomonas aeruginosa PAM1032 and PAM1582. […]

[4] = tested on: P. aeruginosa strain PAM 1723; assay: Mouse lung infection efficacy model; settings: Pseudomonas aeruginosa, PAM1723, in Mus musculus
Method: The inoculum is adjusted to ca. 5×10^6 CFU/ml by correlation of absorbance at 600 nm with predetermined plate counts. […] On day 5, mice are infected by an intratracheal instillation of 0.05 ml of inoculum while under isoflurane anesthesia (5% isoflurane in oxygen running at 4 L/min). […] Mice are sacrificed 1 and 4 hours after treatment, their lungs removed, homogenized and plated to determine colony counts.

[5] = 4 day GLP inhalation toxicology study
PAM1032 [6] = assay type: cell-based, P. aeruginosa
Method: Overnight cultures were grown aerobically overnight in Mueller-Hinton Broth and next diluted 1:10000 in MEM which filled growth flasks to the very top. Cultures were grown without shaking to OD˜0.3 at 37° C. […] Other than decreased aeration, antibiotic concentration, time of exposure, and determination of viable cell counts were the same as in Experiments 1 and 2.

PAM1020 [7] = assay: Time-kill, exponentially grown cells (Experiment 1); assay type: cell-based, P. aeruginosa; settings: 64 ug/ml ([…] MIC), 10 minutes
Method: At appropriate times, 1 ml of each exposure culture was centrifuged for 2 minutes, the pellet was washed twice with 1 ml of drug-free MHB, and re-suspended in 1 ml of MHB. The viable cell numbers were enumerated by plating serially diluted samples (in duplicates) on MHB plates by the drop (10 ul) plating method. The limit of detection was 100 CFU/ml. Killing is reported as the log reduction calculated relative to cell count at the time of initiation of antibiotic exposure. Relative antibiotic concentrations (relative to MIC of the corresponding strains) are used.

PAM1020 [8] = assay: microbe, parasite or virus in culture; assay type: cell-based, P. aeruginosa; settings: Pseudomonas aeruginosa, read-out: Levofloxacin MIC
From the text: (§1) . Those were chosen based on what is known about conditions and growth of PA in a cystic fibrosis (CF) lung. Four isogenic strains of P. aeruginosa were used for these experiments (Table 2).

[9] = in vivo
Method: In the second test, the tolerability and taste of a small aerosol sample from a 0.5 ml aliquot of the test formulation was determined in a single healthy human volunteer, following nebulization in a PARI eFlow nebulizer (Table 12).
The tolerability and taste of the drug during a very brief administration period and for a period of 10 minutes post administration were monitored. Tolerability parameters were of the following types: (i) cough, cough sensation, or sneezing (ii) irritation, burning or tightness of throat, (ii) irritation or runniness in nasal passages or eyes, (iii) irritation, burning or tightness of the lungs or shortness of breadth, and (iv) dizziness, headache, nausea or other systemic effects.

[10] = 4 day non-GLP ascending dose inhalation toxicology study; settings: 24 hours after the last dose
PAM1032 [11] = assay type: cell-based, P. aeruginosa; settings: PAM1032, genotype nalB
From the text: as §1

physchem [12] = assay: physchem; remark: listed apart in the source
Method: This solution was titrated with 1 N HCl. Measured aliquots of HCl were added and the pH recorded after each addition. Titration was continued till a pH of 1.
Vep volume of titrant added till the equivalence point; [OH^−]=hydroxide ion concentration=Kw/[…]; [H^+]=hydronium ion concentration=10^−pH.

PAM1582 [13] = assay type: cell-based, Pseudomonas aeruginosa; settings: for reduction in bacterial counts: half-life 10 minutes
Method: (§2) The in vitro pharmacodynamic model consists of a central (analogous “serum” compartment) and peripheral (“extravascular”) compartment. The peripheral compartments consist of artificial capillary units (Unisyn, Hopkinton, Mass.) arranged in series with the central compartment. Each capillary unit has a bundle of small semi-permeable fibers with a molecular size retention of ca. 10,000 MW to allow passage of nutrients but not bacteria. The entire system is set up in a dry heat incubator adjusted to 37° C.
(§3) Both the central and peripheral compartments were filled with Mueller-Hinton broth. Each peripheral compartment (capillary unit and tubing) contained ca. 23 ml of growth medium.
(§4) Bacteria were introduced into the peripheral chamber of the model and allowed to grow for 2 hours prior to the first “dose” of drug. Drug doses were administered into the central compartment and pumped to peripheral chambers by a peristaltic pump. Concentrations in the model declined according to first order elimination (half-life) by dilution of the central compartment with drug free medium introduced by an additional peristaltic pump adjusted to the desired clearance.
(§5) Samples (0.3 ml) were collected from peripheral compartments at various intervals for determination of drug and bacterial concentrations. Samples were collected from the peripheral compartments and assayed for drug concentrations by HPLC.
(§6) Of the resulting dilution, 2.3 ml was injected into each peripheral chamber of the hollow-fiber bioreactors (Unisyn, Hopkinton, Mass.).

[14] = Tolerability of aerosol levofloxacin in a healthy human subject
[15] = Rat pharmacokinetic model (IV vs microspray aerosol, intratracheal); assay type: in vivo, rats; settings: 10 mg/kg; for AUC: epithelial lining fluid (ELF)
Method: […] Blood samples are taken at various times over 3 hours to determine the plasma pharmacokinetic parameters. […] The plasma and tissue concentrations are determined by an HPLC method and the data are then fit using WinNonlin.

PAM1032 [16] = assay: In vitro pharmacodynamic (hollow fiber) model of infection; assay type: cell-based, Pseudomonas aeruginosa; settings: for reduction in bacterial counts: half-life 10 minutes
Method: as §2, §3, §4, §5, §6

[17] = 28-day GLP inhalation toxicology study
[18] = tested on: colony biofilms of PAM1032; assay type: cell-based, P. aeruginosa; settings: 10 minutes of exposure
Method: The viable cell numbers were enumerated by plating serially diluted samples (in duplicates) on MHB plates by the drop (10 ul) plating method.

Compound: C[C@H]1COc2c(N3CCN(C)CC3)c(F)cc3c(=O)c(C(=O)O)cn1c23 [Levofloxacin, levofloxacin]
- penetration into lung tissues [1]: penetrates well into lung tissues
- pKa (physchem [2]): 5.91
- MIC (PAM1582 [3]): 32 µg/mL
- log reduction at 25 mg/kg ([4]; 1 h, read-out: DeltaLOG CPU 1 hr, route IT, dose 25 mg/kg, 1 hr post-drug administration): 2.48
- log reduction at 25 mg/kg ([4]; 4 h, read-out: DeltaLOG CPU 4 hr, route IT, dose 25 mg/kg, 4 hr post-drug administration): 1.45
- log reduction at 25 mg/kg ([4]; ip, 1 h, read-out: DeltaLOG CPU 1 hr, route IP, dose 25 mg/kg, 1 hr post-drug administration): 1.4
- survival ([5]; 4 day treatment period): all animals survived
- necropsy ([5]; after the last dose): did not show any findings
- stronger killing at longer exposure intervals (difference) (PAM1032 [6]): less than 1 log
- maximum killing, decrease in viable cell counts (PAM1020 [7]): 5.5 log
- MIC (PAM1020 [8]): 0.25 µg/mL (≈ 0.692 µM)
- Aerosol Tolerability and Taste [9]: chemical taste, somewhat bitter,
- necropsy [10]: did not show any findings
- Levofloxacin MIC (PAM1032 [11]): 1 µg/mL
- Levofloxacin MIC (PAM1032 [11]; listed as levofloxacin): 1.0 µg/mL
- acidic pKa (physchem [12]): ~1.6
- pKb (physchem [12]): 7.7
- pKa (physchem [12]; acidic pKa): < 2
- pKa (physchem [12]; pKa): 6.3
- pKa (physchem [12]; pKa of the basic site as stated in text): ~6.8
- bacterial reduction (PAM1582 [13]): up to 99.99%
- reduction in bacterial counts (PAM1582 [13]; Cmax 600 ug/ml): 3 log
- reduction in bacterial counts (PAM1582 [13]; Cmax 1000 ug/ml): 4 log
- bacterial reduction (PAM1582 [13]; listed as levofloxacin): up to 99.999%
- tolerability of hypotonic solutions for inhalation ([14]; concentrations greater than 10 mg/ml): poorly tolerated
- overall tolerability ([14]; first test): well tolerated
- acute tolerability ([14]; second test: 4 ml of 18.75 mg/mL, Aerogen Small, estimated RDD 35 mg): very comparable to the first test
- adverse effects in the throat, airway or lungs ([14]; third test: 4 mL of 18.75 mg/mL, PARI Large, estimated RDD ~55 mg): no adverse effects in the throat, airway or lungs
- F, % from Lung vs. IV ([15]; IT): 86%
- AUC ([15]; rat, inhaled or intranasal, IT): 12100 ng·h/mL
- AUC ([15]; rat, iv): 10500 ng·h/mL
- half-life ([15]; rat, in vivo, inhaled or intranasal, IT, read-out: Serum t1/2 (converted)): 24 min
- AUC(0-inf) ([15]; rat, serum, inhaled or intranasal, IT): 3280 ng·h/mL
- time to maximum bactericidal effect (PAM1032 [16]; Cmax 600 ug/ml): 30 min
- reduction in bacterial counts (PAM1032 [16]; Cmax 600 ug/ml): 5 log
- time to maximum bactericidal effect (PAM1032 [16]; Cmax 1000 ug/ml): ≤ 10 min
- reduction in bacterial counts (PAM1032 [16]; Cmax 1000 ug/ml): 5 log
- bacterial reduction (PAM1032 [16]; Cmax of both 600 and 1000 ug/ml, strain with MIC of 1 ug/ml): ≤ 99.9999%
- survival ([17]; 28 day treatment period): all animals survived
- necropsy ([17]; after the last dose): dose related squamous cell hyperplasia of the larynx
- maximum observed bactericidal activity against biofilms [18]: 99%
